From the supplement of paper PMC11061612

What was measured:
Experiment in all cases: combination Emax (second highest fraction inhibited in the dose matrix, 72 h); higher = more inhibition; extreme values may be limits of the assay
[1] = tested on: CW-2 (Colorectal Carcinoma)
Method in brief: (§1)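 Cell lines grown in DMEM/F12 or RPMI with 10% FBS were plated in 1536-well plates and held 24 hours at 37°C, 5% CO2 before 72 hours of exposure to two-drug dose matrices, with DMSO typically at 0.2%. CellTiter-Glo 2.0 luminescence gave viability, which was converted to inhibition. Vehicle wells were set to 0 and blank wells to 1. Combination Emax is the second-highest inhibition in the matrix, and Bliss excess is the observed combination effect minus the expected EA + EB − EA·EB, where EA and EB are the single-agent effects.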

[2] = tested on: DAN-G (Pancreatic Carcinoma)
Method in brief: as §1

[3] = tested on: ESO51 (Esophageal Adenocarcinoma)
Method in brief: as §1

[4] = tested on: H9 (T-Cell Non-Hodgkin's Lymphoma)
Method in brief: as §1

[5] = tested on: HCC1419 (Breast Carcinoma)
Method in brief: as §1

[6] = tested on: KMS-12-BM (Plasma Cell Myeloma)
Method in brief: as §1

[7] = tested on: KP-3 (Pancreatic Carcinoma)
Method in brief: as §1

[8] = tested on: KU812 (Chronic Myelogenous Leukemia)
Method in brief: as §1

[9] = tested on: KY821 (Acute Myeloid Leukemia)
Method in brief: as §1

[10] = tested on: KYSE-270 (Esophageal Squamous Cell Carcinoma)
Method in brief: as §1

[11] = tested on: MOG-G-CCM (Low Grade Glioma)
Method in brief: as §1

[12] = tested on: NCCIT (Other Solid Carcinomas)
Method in brief: as §1

[13] = tested on: NCI-H3122 (Lung Adenocarcinoma)
Method in brief: as §1

[14] = tested on: NCI-H661 (Non-Small Cell Lung Carcinoma)
Method in brief: as §1

RD (Rhabdomyosarcoma) = tested on: RD (Rhabdomyosarcoma)
Method in brief: as §1

[15] = tested on: RPMI-8226 (Plasma Cell Myeloma)
Method in brief: as §1

[16] = tested on: SK-GT-4 (Esophageal Adenocarcinoma)
Method in brief: as §1

[17] = tested on: SNU-398 (Hepatocellular Carcinoma)
Method in brief: as §1

[18] = tested on: SU-DHL-5 (B-Cell Non-Hodgkin's Lymphoma)
Method in brief: as §1

[19] = tested on: SUP-B15 (B-Lymphoblastic Leukemia)
Method in brief: as §1

| SMILES | combination Emax [1] | combination Emax [2] | combination Emax [3] | combination Emax [4] | combination Emax [5] | combination Emax [6] | combination Emax [7] | combination Emax [8] | combination Emax [9] | combination Emax [10] | combination Emax [11] | combination Emax [12] | combination Emax [13] | combination Emax [14] | combination Emax (RD (Rhabdomyosarcoma)) | combination Emax [15] | combination Emax [16] | combination Emax [17] | combination Emax [18] | combination Emax [19] |
| --- | --- | --- | --- | --- | --- | --- | --- | --- | --- | --- | --- | --- | --- | --- | --- | --- | --- | --- | --- | --- |
| Cc1c2c(nn1C)CSCc1cc(n(C)n1)CSc1cc(c3ccccc3c1)OCCCc1c(C(=O)O)n(C)c3c-2c(Cl)ccc13 [AZD5991] + C=CCn1c(=O)c2cnc(Nc3ccc(N4CCN(C)CC4)cc3)nc2n1-c1cccc(C(C)(C)O)n1 [AZD1775] (first compound max 1 µM, partner max 1 µM) | 0.402 | 0.883 | 0.591 | 1 | 0.198 | 1 | 0.269 | 0.885 | 1 | 0.921 | 0.457 | 0.86 | 0.815 | 0.949 | 0.788 | 0.984 | 0.465 | 1 | 1 | 1 |
| CN(C)CCCOc1ccc(-c2ccc3ncc4c(c3c2)n(C2CCOCC2)c(=O)n4C)cn1 [AZD0156] + CCN(CCO)CCCOc1ccc2c(Nc3cc(CC(=O)Nc4cccc(F)c4)[nH]n3)ncnc2c1 [AZD2811] (first compound max 1 µM, 7x7, partner max 1 µM) | 0.123 | 0.321 | 0.163 | 0.727 | 0.118 | 0.495 | 0.0612 | 0.584 | 0.559 | 0.0944 | 0.367 | 0.17 | 0.446 | 0.0442 | 0.0353 | 0.556 | 0.192 | 0.339 | 0.931 | 0.896 |
| Cc1c2c(nn1C)CSCc1cc(n(C)n1)CSc1cc(c3ccccc3c1)OCCCc1c(C(=O)O)n(C)c3c-2c(Cl)ccc13 [AZD5991] + C[C@@H]1COCCN1C2=NC(=NC(=C2)C3(CC3)[S@](=N)(=O)C)C4=C5C=CNC5=NC=C4 [AZD6738] (first compound max 1 µM, 7x7, partner max 10 µM) | 0.443 | 0.737 | 0.747 | 1 | 0.275 | 1 | 0.377 | 0.902 | 1 | 0.892 | 0.518 | 0.864 | 0.841 | 0.829 | 0.739 | 1 | 0.526 | 1 | 1 | 1 |
| COc1nnc2ccc(N3CCC(c4ccc(OCCN5CCN(C)C(=O)[C@H]5C)cc4)CC3)nn12 [AZD5153] + CC1(C)CCC(CN2CCN(c3ccc(C(=O)NS(=O)(=O)c4ccc(NCC5CCOCC5)c([N+](=O)[O-])c4)c(Oc4cnc5[nH]ccc5c4)c3)CC2)=C(c2ccc(Cl)cc2)C1 [Venetoclax] (first compound max 1 µM, 7x7, partner max 1 µM) | 0.513 | 0.268 | 0.581 | 1 | 0.389 | 1 | 0.21 | 0.924 | 1 | 0.547 | 0.54 | 0.807 | 0.633 | 0.264 | 0.533 | 0.8 | 0.484 | 0.447 | 0.978 | 1 |
| CC(=O)Nc1cccc(-n2c(=O)n(C3CC3)c(=O)c3c(Nc4ccc(I)cc4F)n(C)c(=O)c(C)c32)c1 [Trametinib] + Cc1nc(-c2cn3c(n2)-c2ccc(-c4cnn(C(C)(C)C(N)=O)c4)cc2OCC3)n(C(C)C)n1 [Taselisib] (first compound max 1 µM, 7x7, partner max 10 µM) | 0.565 | 0.999 | 0.987 | 0.984 | 0.649 | 0.636 | 0.446 | 0.921 | 0.97 | 0.8 | 0.548 | 0.73 | 0.99 | 0.457 | 0.972 | 0.755 | 0.954 | 0.56 | 1 | 1 |
| COc1cc2ncnc(Nc3ccc(F)c(Cl)c3)c2cc1OCCCN1CCOCC1 [Gefitinib] + CC(C)n1c(=O)n(C)c2cnc3cc(F)c(-c4ccc(OCCCN5CCCCC5)nc4)cc3c21 [AZD1390] (first compound max 10 µM, 7x7, partner max 0.3 µM) | 0.41 | 0.0121 | 0.188 | 0.47 | 0.425 | 0.308 | 0.0907 | 0.425 | 0.416 | 0.435 | 0.137 | 0.418 | 0.0961 | 0.0361 | 0.0787 | 0.0829 | 0.373 | 0.0256 | 0.393 | 0.0538 |
| Cc1c2c(nn1C)CSCc1cc(n(C)n1)CSc1cc(c3ccccc3c1)OCCCc1c(C(=O)O)n(C)c3c-2c(Cl)ccc13 [AZD5991] + C[C@@H](Nc1cc(F)cc(F)c1)c1cc(C(=O)N(C)C)cc2c(=O)cc(N3CCOCC3)oc12 [AZD8186] (first compound max 1 µM, 7x7, partner max 3 µM) | 0.139 | 0.36 | 0.217 | 0.574 | 0.344 | 1 | 0.124 | 0.862 | 1 | 0.622 | 0.447 | 0.678 | 0.352 | 0.6 | 0.521 | 0.949 | 0.288 | 0.995 | 1 | 1 |
| COc1cccc2c1C(=O)c1c(O)c3c(c(O)c1C2=O)C[C@@](O)(C(=O)CO)C[C@@H]3O[C@H]1C[C@H](N)[C@H](O)[C@H](C)O1 [Doxorubicin] + Cc1cc2ncnn2cc1Nc1ncc2c(n1)n(C1CCOCC1)c(=O)n2C [AZD7648] (first compound max 1 µM, 7x7, partner max 10 µM) | 0.231 | 0.735 | 0.611 | 1 | 0.535 | 0.84 | 0.152 | 0.822 | 0.983 | 0.944 | 0.663 | 0.825 | 0.921 | 0.753 | 0.493 | 0.976 | 0.593 | 0.595 | 1 | 0.987 |
| CC1(C)CCC(CN2CCN(c3ccc(C(=O)NS(=O)(=O)c4ccc(NCC5CCOCC5)c([N+](=O)[O-])c4)c(Oc4cnc5[nH]ccc5c4)c3)CC2)=C(c2ccc(Cl)cc2)C1 [Venetoclax] + C1CN(CCC1(C(=O)N[C@@H](CCO)C2=CC=C(C=C2)Cl)N)C3=NC=NC4=C3C=CN4 [Capivasertib] (first compound max 1 µM, 7x7, partner max 3 µM) | 0.163 | 0.195 | 0.11 | 0.541 | 0.53 | 1 | 0.137 | 0.48 | 1 | 0.711 | 0.348 | 0.398 | 0.362 | 0.192 | 0.198 | 0.172 | 0.484 | 0.217 | 0.915 | 1 |
| Cc1cc2ncnn2cc1Nc1ncc2c(n1)n(C1CCOCC1)c(=O)n2C [AZD7648] + C=CCn1c(=O)c2cnc(Nc3ccc(N4CCN(C)CC4)cc3)nc2n1-c1cccc(C(C)(C)O)n1 [AZD1775] (first compound max 10 µM, partner max 1 µM) | 0.391 | 0.631 | 0.576 | 0.969 | 0.341 | 0.937 | 0.282 | 0.799 | 0.994 | 0.594 | 0.48 | 0.853 | 0.744 | 0.649 | 0.32 | 0.348 | 0.474 | 0.533 | 1 | 0.553 |
| CC1(C)CCC(CN2CCN(c3ccc(C(=O)NS(=O)(=O)c4ccc(NCC5CCOCC5)c([N+](=O)[O-])c4)c(Oc4cnc5[nH]ccc5c4)c3)CC2)=C(c2ccc(Cl)cc2)C1 [Venetoclax] + Cn1cnc2c(F)c(Nc3ccc(Br)cc3Cl)c(C(=O)NOCCO)cc21 [Selumetinib] (first compound max 1 µM, 7x7, partner max 3 µM) | 0.191 | 0.233 | 0.384 | 0.931 | 0.201 | 1 | 0.135 | 0.783 | 1 | 0.554 | 0.0923 | 0.112 | 0.387 | 0.0912 | 0.217 | 0.325 | 0.473 | 0.352 | 0.339 | 1 |
| CC1(C)CCC(CN2CCN(c3ccc(C(=O)NS(=O)(=O)c4ccc(NCC5CCOCC5)c([N+](=O)[O-])c4)c(Oc4cnc5[nH]ccc5c4)c3)CC2)=C(c2ccc(Cl)cc2)C1 [Venetoclax] + CN(C)CCCOc1ccc(-c2ccc3ncc4c(c3c2)n(C2CCOCC2)c(=O)n4C)cn1 [AZD0156] (first compound max 1 µM, 7x7, partner max 1 µM) | 0.174 | 0.264 | 0.147 | 0.156 | 0.289 | 1 | 0.146 | 0.403 | 0.926 | 0.785 | 0.385 | 0.275 | 0.264 | 0.122 | 0.161 | 0.43 | 0.392 | 0.234 | 0.455 | 1 |
